For the experiment, the target named is T1, type-1 15-PGDH (Homo sapiens, UniProt P15428).
T1 construct: made in house
T1 sequence (P15428 1-266): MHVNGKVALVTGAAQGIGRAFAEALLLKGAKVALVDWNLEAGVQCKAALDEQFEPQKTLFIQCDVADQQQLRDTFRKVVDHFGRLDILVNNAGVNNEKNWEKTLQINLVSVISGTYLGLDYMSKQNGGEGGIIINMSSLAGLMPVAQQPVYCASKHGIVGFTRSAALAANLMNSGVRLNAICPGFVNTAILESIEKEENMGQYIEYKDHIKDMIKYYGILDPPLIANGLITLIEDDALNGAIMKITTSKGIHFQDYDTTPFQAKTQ
Description: Test on type-1 15-PGDH (spectrophotometric, 340 nm, PGE2 and β-NAD as substrates). The class given is biochemical. The following applies: 37° C.; for IC50: pH 7.4 Tris buffer, 50 μM Prostaglandin E2, 1.5 mM β-NAD. As for the experimental part:
The enzyme 15-PGDH is obtained as described in patent application FR 02/05067 filed in the name of L'Oréal, as a suspension in a medium adjusted to a concentration of 0.3 mg/mL and then blocked at −80° C. For the purposes of the test, this suspension is thawed and stored in ice.
In parallel, a 100 mM, pH 7.4 Tris buffer containing 0.1 mM of dithiothreitol (D5545, Sigma-Aldrich, L'isle D'Abeau Chesne, BP 701, 38297, Saint Quentin Fallavier), 1.5 mM of β-NAD (N6522, Sigma-Aldrich, L'isle D'Abeau Chesne, BP 701, 38297, Saint Quentin Fallavier), and 50 μM of Prostaglandin E2 (P4172, Sigma-Aldrich, L'isle D'Abeau Chesne, BP 701, 38297, Saint Quentin Fallavier) is prepared.
0.965 ml of this buffer (brought to 37° C. beforehand) is introduced into the cuvette of a spectrophotometer (Perkin-Elmer, Lambda 2) thermostatically maintained at 37° C., the measuring wavelength of which is set at 340 nm. 0.035 mL of enzymatic suspension at 37° C. is introduced into the cuvette concomitantly with the recording (corresponding to an increase in the optical density at 340 nm). The maximum reaction rate is recorded.

SMILES strings stand for the structures.

What is called inhibition is the change of the read-out against control, counted positive when it falls. On to `O=C1NC(=O)/C(=C/c2ccccc2Oc2ccc(F)cc2)S1` [Compound 6], for which the inhibition at 100 µM (at 100 μM of compound, pH 7.4, read-out: % inhibition of the enzymatic activity of 15-PGDH) stood at 48%.
As usually defined, the IC50 is the concentration that gives 50% inhibition. The low end stands for higher potency, the high end for lower potency. For `O=C1NC(=O)/C(=C/c2ccccc2Oc2ccc(Br)cc2F)S1` [Compound 10], half-maximal inhibition (IC50) required 1550 nM.
With `CC(C)(C)c1ccc(Oc2cccc(/C=C3\SC(=O)NC3=O)c2)cc1` [Compound 16], the IC50 was found to be 200 nM.

Source of the values: patent publication US20070059265A1, “Benzylidene-1,3-thiazolidine-2,4-dione compounds for stimulating or inducing the growth and/or for reducing the loss and/or for increasing the density of keratin fibers” (L'OREAL, priority 2005, published 2007).
